According to US8835428B2, “Diacylglycerol acyltransferase inhibitors” (Piramal Enterprises Limited, priority 2008, dated 2014):

Target: T1, hDGAT1 (Homo sapiens, UniProt O75907)
T1 construct: host or cells: Sf9 insect cells (baculovirus); microsomal preparation
T1 sequence (O75907 1-488): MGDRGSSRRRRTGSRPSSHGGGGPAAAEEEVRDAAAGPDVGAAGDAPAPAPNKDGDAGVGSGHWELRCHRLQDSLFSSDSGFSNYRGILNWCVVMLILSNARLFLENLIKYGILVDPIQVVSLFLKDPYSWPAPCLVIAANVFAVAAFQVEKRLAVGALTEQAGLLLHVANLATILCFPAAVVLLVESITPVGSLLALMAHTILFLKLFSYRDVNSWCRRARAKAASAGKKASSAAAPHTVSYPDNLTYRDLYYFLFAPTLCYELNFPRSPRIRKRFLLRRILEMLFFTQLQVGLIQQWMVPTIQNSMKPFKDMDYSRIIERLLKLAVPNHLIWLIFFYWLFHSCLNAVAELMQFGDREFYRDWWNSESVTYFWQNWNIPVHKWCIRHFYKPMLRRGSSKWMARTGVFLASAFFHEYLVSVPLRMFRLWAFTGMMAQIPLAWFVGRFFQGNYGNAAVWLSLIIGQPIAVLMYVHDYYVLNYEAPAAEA
Experiment: In-vitro DGAT1 assay (hDGAT1 microsomes from Sf9 cells, 14C oleoyl CoA, triglyceride formation)
Format: biochemical
Method in brief: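 Compounds tested in duplicate at 10, 5 and 1 μM for 10 min at 37 °C. Reaction: Sf9-expressed hDGAT1 microsomes (2.5–10 μg), [14C]oleoyl-CoA plus 409.5–1638 μM dioleoylglycerol, pH 7.4 Tris-HCl with fatty-acid-free BSA. Radiolabelled triglyceride extracted into heptane and scintillation-counted.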

| SMILES | inhibition at 10 µM [%] | further results |
| --- | --- | --- |
| CC(C)C(NC(=O)c1cc(-c2ccc(NC(=O)Nc3ccc(OC(F)(F)F)c(Cl)c3)cc2)no1)C(=O)O (stereo not shown) [Example 289, (3-(4-(3-(3-chloro-4-(trifluoromethoxy)phenyl)ureido)phenyl)isoxazole-5-carboxamido)-3-methylbutanoic acid] | – | % inhibition of hDGAT1 (At 1 μM): +++ (>75% Inhibition ≦100) |
| CC(C)C[C@H](NC(=O)c1onc(-c2ccc(NC(=O)Nc3ccccc3)cc2)c1-c1ccccc1)C(=O)O [Example 91, (S)-4-Methyl-2-({4-phenyl-3-[4-(3-phenyl-ureido)-phenyl]-isoxazole-5-carbonyl}-amino)-pentanoic acid] | 0 to 50 | – |
| COC(=O)C(NC(=O)c1cc(-c2ccc(NC(=O)Nc3ccccc3F)cc2)no1)C(C)C (stereo not shown) [Example 105, 2-[(3-{4-[3-(2-Fluoro-phenyl)ureido]-phenyl}-isoxazole-5-carbonyl)-amino]-3-methyl-butyric acid methyl ester] | 50 to 75 | – |
| Cc1ccc(NC(=O)Nc2ccc(-c3noc(C(=O)N[C@H](C(=O)O)C(C)C)n3)cc2)cc1 [Example 347, (S)-3-Methyl-2-(3-(4-(3-p-tolylureido)phenyl)-1,2,4-oxadiazole-5-carboxamido)butanoic acid] | – | inhibition at 5 µM: 50 to 75% |
| Cc1cc(NC(=O)Nc2ccc(F)cc2F)ccc1-c1cc(C(=O)NC(CC(C)C)C(=O)O)on1 (stereo not shown) [Example 140, 2-(3-(4-(3-(2,4-difluorophenyl)ureido)-2-methylphenyl)isoxazole-5-carboxamido)-4-methylpentanoic acid] | 75 to 100 | – |
| COC[C@H](NC(=O)c1cc(-c2cccc(Nc3nc4ccc(F)cc4s3)c2)no1)C(=O)O [Example 29, (S)-2-({3-[3-(6-Fluoro-benzothiazol-2-ylamino)-phenyl]-isoxazole-5-carbonyl}-amino)-3-methoxy-propionic acid] | 0 to 50 | – |
| CC(C)C(NC(=O)c1cc(-c2ccc(NC(=O)Nc3ccc(C4CCCCC4)cc3)cc2)no1)C(=O)O (stereo not shown) [Example 293, 2-(3-(4-(3-(4-cyclohexylphenyl)ureido)phenyl)isoxazole-5-carboxamido)-3-methylbutanoic acid] | – | inhibition at 1 µM (At 1 μM): 75 to 100% |
| CCOC(=O)c1cc(-c2ccc(Nc3nc4ccc(F)cc4s3)cc2)no1 [Example 1, 3-[4-(6-Fluoro-benzothiazol-2-ylamino)-phenyl]-isoxazole-5-carboxylic acid ethyl ester] | 50 to 75 | – |
| CC(C)[C@H](NC(=S)c1cc(-c2cccc(Nc3nc4ccc(F)cc4s3)c2)no1)C(=O)O [Example 25, (S)-2-({3-[3-(6-Fluoro-benzothiazol-2-ylamino)-phenyl]-isoxazole-5-carbothioyl}-amino)-3-methyl-butyric acid] | 0 to 50 | – |
| COC[C@H](NC(=S)c1cc(-c2ccc(Nc3nc4ccc(F)cc4s3)cc2)no1)C(=O)OC [Example 14, (S)-2-({3-[4-(6-Fluoro-benzothiazol-2-ylamino)-phenyl]-isoxazole-5-carbothioyl}-amino)-3-methoxy-propionic acid methyl ester] | 0 to 50 | – |
| CC(C)C(NC(=O)c1cc(-c2ccc(NC(=O)[C@H](O)c3ccccc3)cc2)no1)C(=O)O (stereo partly drawn) [Example 341, 2-(3-(4-((R)-2-hydroxy-2-phenylacetamido)phenyl)isoxazole-5-carboxamido)-3-methylbutanoic acid] | – | inhibition at 1 µM (At 1 μM): 0 to 50% |
| O=C(O)c1cc(-c2cccc(Nc3nc4ccc(F)cc4s3)c2)no1 [Example 21, 3-[3-(6-Fluoro-benzothiazol-2-ylamino)-phenyl]-isoxazole-5-carboxylic acid] | 0 to 50 | – |
| CC(C)[C@H](NC(=O)c1cc(-c2ccc(NC(=O)Nc3ccc(F)cc3F)cc2F)no1)C(=O)O [Example 142, (S)-2-(3-(4-(3-(2,4-difluorophenyl)ureido)-2-fluorophenyl)isoxazole-5-carboxamido)-3-methylbutanoic acid] | – | inhibition at 5 µM: 75 to 100% |
| O=C(Nc1ccc(-c2cc(C(=O)N3CCC[C@H]3C(=O)O)on2)cc1)Nc1ccccc1F [Example 262, (S)-1-(3-(4-(3-(2-Fluorophenyl)ureido)phenyl)isoxazole-5-carbonyl) pyrrolidine-2-carboxylic acid] | – | inhibition at 1 µM (At 1 μM): 50 to 75% |
| Cc1ccc(NC(=O)Nc2ccc(F)cc2)cc1-c1cc(C(=O)NC(CC(C)C)C(=O)O)on1 (stereo not shown) [Example 132, 2-(3-(5-(3-(4-fluorophenyl)ureido)-2-methylphenyl)isoxazole-5-carboxamido)-4-methylpentanoic acid] | 0 to 50 | – |
| COC(=O)[C@H](C(C)C)N(C)C(=O)c1cc(-c2ccc(NC(=O)Nc3ccccc3F)cc2)no1 [Example 305, (S)-Methyl 2-(3-(4-(3-(2-fluorophenyl)ureido)phenyl)-N-methylisoxazole-5-carboxamido)-3-methylbutanoate] | – | inhibition at 1 µM (At 1 μM): 50 to 75% |

| SMILES | inhibition at 10 µM [%] | further results |
| --- | --- | --- |
| COC[C@H](NC(=S)c1cc(-c2cccc(Nc3nc4ccc(F)cc4s3)c2)no1)C(=O)O [Example 31, (S)-2-({3-[3-(6-Fluoro-benzothiazol-2-ylamino)-phenyl]-isoxazole-5-carbothioyl}-amino)-3-methoxy-propionic acid] | 0 to 50 | – |
| COC(=O)C(NC(=O)c1cc(-c2ccc(NC(=O)Nc3cccc(C(F)(F)F)c3)cc2)no1)C(C)C (stereo not shown) [Example 277, Methyl 3-methyl-2-(3-(4-(3-(3-(trifluoromethyl)phenyl)ureido)phenyl)isoxazole-5-carboxamido)butanoate] | – | inhibition at 5 µM: 0 to 50% |
| COC(=O)[C@@H](NC(=O)c1cc(-c2ccc(Nc3nc4ccc(F)cc4s3)cc2)no1)c1ccccc1 [Example 52, (S)-({3-[4-(6-Fluoro-benzothiazol-2-ylamino)-phenyl]-isoxazole-5-carbonyl}-amino)-phenyl-acetic acid methyl ester] | 0 to 50 | – |
| COC(=O)[C@@H](NC(=O)c1nc(-c2ccc(NC(=O)Nc3ccccc3)cc2)no1)C(C)C [Example 351, (S)-Methyl 3-methyl-2-(3-(4-(3-phenylureido)phenyl)-1,2,4-oxadiazole-5-carboxamido)butanoate] | – | inhibition at 5 µM: 0 to 50% |
| COC(=O)[C@@H](NC(=O)c1nc(-c2ccc(NC(=S)Nc3ccccc3F)cc2)no1)C(C)C [Example 355, (S)-methyl 2-(3-(4-(3-(2-fluorophenyl)thioureido)phenyl)-1,2,4-oxadiazole-5-carboxamido)-3-methylbutanoate] | – | inhibition at 5 µM: 50 to 75% |
| COC[C@H](NC(=S)c1cc(-c2ccc(Nc3nc4ccc(F)cc4s3)cc2)no1)C(=O)O [Example 15, (S)-2-({3-[4-(6-Fluoro-benzothiazol-2-ylamino)-phenyl]-isoxazole-5-carbothioyl}-amino)-3-methoxy-propionic acid] | 50 to 75 | – |
| O=C(O)CNC(=S)c1cc(-c2ccc(Nc3nc4ccc(F)cc4s3)cc2)no1 [Example 61, ({3-[4-(6-fluoro-benzothiazol-2-ylamino)-phenyl]-isoxazole-5-carbothioyl}-amino)-acetic acid] | 0 to 50 | – |
| COC(=O)[C@@H](NC(=O)c1cc(-c2ccc(NC(=O)Nc3cccc(C)c3)cc2)no1)C(C)C [Example 265, (S)-methyl 3-methyl-2-(3-(4-(3-m-tolylureido)phenyl)isoxazole-5-carboxamido)butanoate] | – | inhibition at 5 µM: 50 to 75% |
| CC(C)[C@H](NC(=O)c1csc(-c2ccc(NC(=O)Nc3ccc(F)c(F)c3)cc2)n1)C(=O)O [Example 371, (S)-2-(2-(4-(3-(3,4-Difluorophenyl)ureido)phenyl)thiazole-4-carboxamido)-3-methylbutanoic acid] | – | inhibition at 1 µM (At 1 μM): 0 to 50% |
| CC(C)[C@@H](NC(=O)c1cc(-c2ccc(NC(=O)Nc3ccccc3Cl)cc2)no1)C(=O)O [Example 221, (R)-2-(3-(4-(3-(2-Chlorophenyl)ureido)phenyl)isoxazole-5-carboxamido)-3-methylbutanoic acid] | – | inhibition at 1 µM (At 1 μM): 75 to 100% |
| CCC(C)[C@H](NC(=O)c1cc(-c2ccc(NC(=O)Nc3ccccc3)cc2)no1)C(=O)OC (stereo partly drawn) [Example 78, (S)-3-Methyl-2-({3-[4-(3-phenyl-ureido)-phenyl]-isoxazole-5-carbonyl}-amino)-pentanoic acid methyl ester] | 0 to 50 | – |
| COC(=O)[C@H](NC(=S)c1cc(-c2ccc(NC(=O)Nc3ccc(C)cc3)cc2)no1)C(C)C [Example 223, (R)-Methyl 3-methyl-2-(3-(4-(3-p-tolylureido)phenyl)isoxazole-5-carbothioamido)butanoate] | – | inhibition at 1 µM (At 1 μM): 0 to 50% |
| COC(=O)[C@@H](NC(=O)c1onc(-c2ccc(NC(=O)Nc3ccc(F)cc3)cc2)c1-c1ccccc1)C(C)C [Example 92, (S)-2-[(3-{4-[3-(4-Fluoro-phenyl)-ureido]-phenyl}-4-phenyl-isoxazole-5-carbonyl)-amino]-3-methyl-butyric acid methyl ester] | 0 to 50 | – |
| COC(=O)C(NC(=O)c1cc(-c2ccc(OCc3ccccc3C(F)(F)F)cc2)no1)C(C)C (stereo not shown) [Example 329, Methyl 3-methyl-2-(3-(4-(2-(trifluoromethyl)benzyloxy)phenyl)isoxazole-5-carboxamido)butanoate] | – | inhibition at 1 µM (At 1 μM): 0 to 50% |
| CC(C)C(NC(=O)c1cc(-c2ccc(NC(=O)Nc3ccccc3F)cc2)no1)C(=O)O (stereo not shown) [Example 106, 2-(3-(4-(3-(2-Fluorophenyl)ureido)phenyl)isoxazole-5-carboxamido)-3-methylbutanoic acid] | 75 to 100 | – |
